According to the supplement of paper PMC12819154, “High-throughput peptide-centric local stability assay extends protein–ligand identification to membrane proteins, tissues and bacteria” (Nature Structural & Molecular Biology, 2025):

Tests used:
Test in all cases: pEC50 of peptide local stability change
[1] = target: UniProt P37647; conditions: peptide sequence: GHLTASTVIQYR; direction: stabilized; replicate design: treated separately
In short: (§1)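 Desalted E. coli K-12 BW25113 lysate (1.2 mg ml^−1, MgCl2-supplemented) was split into four 50 µl replicates. Each was incubated with ATP (10 µM–10 mM, seven doses) or water for 30 min at 25 °C, trypsin-digested for 4 min at 22 °C and analysed by DIA LC–MS/MS. Per-replicate treated/control peptide ratios were fitted to a four-parameter log-logistic model. The value is mean pEC50, kept when fit R^2 exceeded 0.9 in at least three replicates and pEC50 coefficient of variation was at most 0.25.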

[2] = target: UniProt P12282; conditions: peptide sequence: NQLNAGCFAAK; direction: stabilized; replicate design: treated separately
In short: as §1

[3] = target: UniProt P46889; conditions: peptide sequence: DIAGEPVVADLAK; direction: stabilized; replicate design: treated separately
In short: as §1

[4] = target: UniProt P37344; conditions: peptide sequence: ETLLNYR; direction: stabilized; replicate design: treated separately
In short: as §1

[5] = target: UniProt P27828; conditions: peptide sequence: AHNPYGDGQACSR; direction: stabilized; replicate design: treated separately
In short: as §1

[6] = target: UniProt P64610; conditions: peptide sequence: YYAHLGR; direction: stabilized; replicate design: treated separately
In short: as §1

[7] = target: UniProt P30844; conditions: peptide sequence: AGQSFSSGNYQHVK; direction: stabilized; replicate design: treated separately
In short: as §1

[8] = target: UniProt P25539; conditions: peptide sequence: HVGPDVCLHLVGA; direction: stabilized; replicate design: treated separately
In short: as §1

[9] = target: UniProt P30176; conditions: peptide sequence: AKFEQHAELR; direction: stabilized; replicate design: treated separately
In short: as §1

[10] = target: UniProt P07604; conditions: peptide sequence: YAWPGNVR; direction: stabilized; replicate design: treated separately
In short: as §1

[11] = target: UniProt P00954; conditions: peptide sequence: FRNDEAFLQQVMK; direction: stabilized; replicate design: treated separately
In short: as §1

[12] = target: UniProt P23538; conditions: peptide sequence: QVKIEDVPQEQR; direction: stabilized; replicate design: treated separately
In short: as §1

[13] = target: UniProt P33919; conditions: peptide sequence: VLVLAHVK; direction: stabilized; replicate design: treated separately
In short: as §1

[14] = target: MurF (UniProt P11880); conditions: peptide sequence: KLTPGCLFVALKGER; direction: stabilized; replicate design: treated separately
In short: as §1

[15] = target: UniProt P15034; conditions: peptide sequence: RAGEITAMAHTR; direction: stabilized; replicate design: treated separately
In short: as §1

[16] = target: UniProt P07118; conditions: peptide sequence: ITPAHDFNDYEVGKR; direction: stabilized; replicate design: treated separately
In short: as §1

[17] = target: UniProt Q06065; conditions: peptide sequence: QPVCNAGEVK; direction: stabilized; replicate design: treated separately
In short: as §1

[18] = target: UniProt P07821; conditions: peptide sequence: LVDSLSGGER; direction: stabilized; replicate design: treated separately
In short: as §1

[19] = target: UniProt Q47129; conditions: peptide sequence: LSTVTTSGVNLSR; direction: stabilized; replicate design: treated separately
In short: as §1

[20] = target: UniProt P77485; conditions: peptide sequence: GTVAVTSDAR; direction: stabilized; replicate design: treated separately
In short: as §1

[21] = target: UniProt P76014; conditions: peptide sequence: VVEKLPAIADKDIGFILK; direction: stabilized; replicate design: treated separately
In short: as §1

[22] = target: UniProt P05707; conditions: peptide sequence: VGSKHNSGYSAAK; direction: stabilized; replicate design: treated separately
In short: as §1

[23] = target: UniProt P13000; conditions: peptide sequence: TVASCALLQAAK; direction: stabilized; replicate design: treated separately
In short: as §1

[24] = target: UniProt P28903; conditions: peptide sequence: KGDPNYDIK; direction: stabilized; replicate design: treated separately
In short: as §1

[25] = target: UniProt P27300; conditions: peptide sequence: SVDAVIVNGGVPR; direction: stabilized; replicate design: treated separately
In short: as §1

[26] = target: UniProt P37624; conditions: peptide sequence: VLASGTPQELVEKR; direction: stabilized; replicate design: treated separately
In short: as §1

[27] = target: UniProt P03018; conditions: peptide sequence: EVYHRPSR; direction: stabilized; replicate design: treated separately
In short: as §1

[28] = target: UniProt P0A9B6; conditions: peptide sequence: SLQSLPWR; direction: stabilized; replicate design: treated separately
In short: as §1

[29] = target: UniProt P36938; conditions: peptide sequence: TLVSSAMIDR; direction: stabilized; replicate design: treated separately
In short: as §1

[30] = target: UniProt P27296; conditions: peptide sequence: AQIAAWYK; direction: stabilized; replicate design: treated separately
In short: as §1

[31] = target: UniProt P04425; conditions: peptide sequence: GTLIVNKPQSLR; direction: stabilized; replicate design: treated separately
In short: as §1

Sequence of UniProt P36938 (P36938 whole entry): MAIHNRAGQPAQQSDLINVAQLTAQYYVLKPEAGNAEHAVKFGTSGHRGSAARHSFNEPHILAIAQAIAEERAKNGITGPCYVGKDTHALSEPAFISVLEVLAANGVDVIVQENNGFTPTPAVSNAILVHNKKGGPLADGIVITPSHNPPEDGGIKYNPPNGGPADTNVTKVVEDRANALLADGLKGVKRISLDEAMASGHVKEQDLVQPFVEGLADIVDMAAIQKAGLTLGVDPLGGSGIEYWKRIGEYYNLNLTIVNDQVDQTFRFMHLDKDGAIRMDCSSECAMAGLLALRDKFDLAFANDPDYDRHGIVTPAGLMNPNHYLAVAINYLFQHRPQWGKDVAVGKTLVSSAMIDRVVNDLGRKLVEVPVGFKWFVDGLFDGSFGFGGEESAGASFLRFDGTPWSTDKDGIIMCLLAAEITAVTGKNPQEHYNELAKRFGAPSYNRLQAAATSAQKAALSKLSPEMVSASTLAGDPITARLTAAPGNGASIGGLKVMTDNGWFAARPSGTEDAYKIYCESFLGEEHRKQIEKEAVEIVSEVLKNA
Sequence of UniProt P05707 (P05707 whole entry): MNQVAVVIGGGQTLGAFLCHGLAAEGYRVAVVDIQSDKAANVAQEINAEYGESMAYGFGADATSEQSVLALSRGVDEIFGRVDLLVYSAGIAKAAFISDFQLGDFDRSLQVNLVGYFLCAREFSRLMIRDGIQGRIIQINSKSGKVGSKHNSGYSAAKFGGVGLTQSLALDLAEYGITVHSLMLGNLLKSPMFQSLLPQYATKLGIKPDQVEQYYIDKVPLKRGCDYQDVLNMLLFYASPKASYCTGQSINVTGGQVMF
Sequence of UniProt P37624 (P37624 whole entry): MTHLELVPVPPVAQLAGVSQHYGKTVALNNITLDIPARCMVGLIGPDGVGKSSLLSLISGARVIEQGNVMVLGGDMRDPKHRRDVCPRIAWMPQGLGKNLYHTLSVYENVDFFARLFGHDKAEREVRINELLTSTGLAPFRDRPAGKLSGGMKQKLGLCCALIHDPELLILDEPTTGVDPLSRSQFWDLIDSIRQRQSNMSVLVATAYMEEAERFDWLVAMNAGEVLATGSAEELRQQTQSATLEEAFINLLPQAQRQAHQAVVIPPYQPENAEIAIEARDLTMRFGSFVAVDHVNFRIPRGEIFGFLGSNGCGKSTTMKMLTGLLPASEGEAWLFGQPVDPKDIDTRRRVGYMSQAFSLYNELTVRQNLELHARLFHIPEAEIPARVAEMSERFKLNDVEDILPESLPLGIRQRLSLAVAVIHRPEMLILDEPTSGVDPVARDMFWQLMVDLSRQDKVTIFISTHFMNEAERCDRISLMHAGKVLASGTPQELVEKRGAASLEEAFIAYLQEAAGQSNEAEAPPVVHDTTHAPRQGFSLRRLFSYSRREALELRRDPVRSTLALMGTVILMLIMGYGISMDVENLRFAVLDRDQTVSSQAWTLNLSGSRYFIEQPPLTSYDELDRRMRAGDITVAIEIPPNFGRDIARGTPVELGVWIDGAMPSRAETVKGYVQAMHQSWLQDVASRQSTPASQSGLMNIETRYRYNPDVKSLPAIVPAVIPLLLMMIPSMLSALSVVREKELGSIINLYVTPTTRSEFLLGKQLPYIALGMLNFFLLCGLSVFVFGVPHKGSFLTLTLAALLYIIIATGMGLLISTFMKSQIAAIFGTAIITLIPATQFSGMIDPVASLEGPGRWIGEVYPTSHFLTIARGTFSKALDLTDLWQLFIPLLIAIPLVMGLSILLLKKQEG
Sequence of UniProt P07821 (P07821 whole entry): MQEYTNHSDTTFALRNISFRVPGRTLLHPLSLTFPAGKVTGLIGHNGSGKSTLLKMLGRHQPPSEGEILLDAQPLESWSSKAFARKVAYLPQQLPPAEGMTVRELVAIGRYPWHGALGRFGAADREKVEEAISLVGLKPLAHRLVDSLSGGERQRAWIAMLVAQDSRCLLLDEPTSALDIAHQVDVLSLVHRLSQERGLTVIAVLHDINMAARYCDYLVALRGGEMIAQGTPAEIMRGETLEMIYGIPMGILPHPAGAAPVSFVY
Sequence of UniProt P25539 (P25539 whole entry): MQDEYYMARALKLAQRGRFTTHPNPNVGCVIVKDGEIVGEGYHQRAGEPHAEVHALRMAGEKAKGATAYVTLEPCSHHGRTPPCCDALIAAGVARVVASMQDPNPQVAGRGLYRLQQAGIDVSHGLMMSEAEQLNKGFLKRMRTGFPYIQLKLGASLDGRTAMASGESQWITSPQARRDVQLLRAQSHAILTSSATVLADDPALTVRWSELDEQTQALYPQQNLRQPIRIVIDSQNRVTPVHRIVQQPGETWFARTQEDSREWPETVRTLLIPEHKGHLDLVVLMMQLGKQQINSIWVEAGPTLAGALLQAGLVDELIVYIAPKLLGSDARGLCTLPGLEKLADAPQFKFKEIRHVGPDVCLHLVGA
Sequence of UniProt P13000 (P13000 whole entry): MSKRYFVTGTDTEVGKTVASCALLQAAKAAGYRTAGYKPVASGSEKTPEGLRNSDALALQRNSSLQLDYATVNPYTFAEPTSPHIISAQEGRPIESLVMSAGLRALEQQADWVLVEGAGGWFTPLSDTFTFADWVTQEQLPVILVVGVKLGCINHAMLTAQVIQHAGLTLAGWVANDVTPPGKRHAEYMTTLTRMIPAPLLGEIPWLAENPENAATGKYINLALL
Sequence of UniProt P37344 (P37344 whole entry): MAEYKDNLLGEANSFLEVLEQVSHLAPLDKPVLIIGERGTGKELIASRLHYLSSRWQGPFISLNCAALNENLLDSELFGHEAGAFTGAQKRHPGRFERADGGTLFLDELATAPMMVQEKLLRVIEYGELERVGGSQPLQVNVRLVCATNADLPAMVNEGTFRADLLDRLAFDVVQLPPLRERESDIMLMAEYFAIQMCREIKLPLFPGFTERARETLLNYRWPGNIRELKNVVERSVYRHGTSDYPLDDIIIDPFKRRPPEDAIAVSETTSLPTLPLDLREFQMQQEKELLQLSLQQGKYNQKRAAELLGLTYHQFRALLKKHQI
Sequence of UniProt P33919 (P33919 whole entry): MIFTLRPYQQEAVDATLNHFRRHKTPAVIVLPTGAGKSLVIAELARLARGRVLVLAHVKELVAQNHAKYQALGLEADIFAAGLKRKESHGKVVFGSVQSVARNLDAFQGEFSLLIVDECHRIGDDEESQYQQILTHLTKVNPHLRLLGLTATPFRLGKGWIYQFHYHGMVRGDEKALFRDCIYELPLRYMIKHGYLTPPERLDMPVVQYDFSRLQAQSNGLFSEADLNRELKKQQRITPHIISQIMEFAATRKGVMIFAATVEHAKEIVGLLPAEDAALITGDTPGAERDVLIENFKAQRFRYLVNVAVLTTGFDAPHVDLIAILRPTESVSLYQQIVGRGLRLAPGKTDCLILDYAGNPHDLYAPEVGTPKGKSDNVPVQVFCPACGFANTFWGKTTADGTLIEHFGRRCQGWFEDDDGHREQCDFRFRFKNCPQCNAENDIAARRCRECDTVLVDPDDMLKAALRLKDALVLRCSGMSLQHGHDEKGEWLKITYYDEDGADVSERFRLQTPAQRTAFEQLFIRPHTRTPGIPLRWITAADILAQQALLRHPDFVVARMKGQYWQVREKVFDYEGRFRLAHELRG
Sequence of UniProt P30176 (P30176 whole entry): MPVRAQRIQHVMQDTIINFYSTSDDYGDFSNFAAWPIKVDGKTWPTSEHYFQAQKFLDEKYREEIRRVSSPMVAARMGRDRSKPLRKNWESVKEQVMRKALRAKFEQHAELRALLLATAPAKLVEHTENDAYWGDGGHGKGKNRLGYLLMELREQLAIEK
Sequence of UniProt P27296 (P27296 whole entry): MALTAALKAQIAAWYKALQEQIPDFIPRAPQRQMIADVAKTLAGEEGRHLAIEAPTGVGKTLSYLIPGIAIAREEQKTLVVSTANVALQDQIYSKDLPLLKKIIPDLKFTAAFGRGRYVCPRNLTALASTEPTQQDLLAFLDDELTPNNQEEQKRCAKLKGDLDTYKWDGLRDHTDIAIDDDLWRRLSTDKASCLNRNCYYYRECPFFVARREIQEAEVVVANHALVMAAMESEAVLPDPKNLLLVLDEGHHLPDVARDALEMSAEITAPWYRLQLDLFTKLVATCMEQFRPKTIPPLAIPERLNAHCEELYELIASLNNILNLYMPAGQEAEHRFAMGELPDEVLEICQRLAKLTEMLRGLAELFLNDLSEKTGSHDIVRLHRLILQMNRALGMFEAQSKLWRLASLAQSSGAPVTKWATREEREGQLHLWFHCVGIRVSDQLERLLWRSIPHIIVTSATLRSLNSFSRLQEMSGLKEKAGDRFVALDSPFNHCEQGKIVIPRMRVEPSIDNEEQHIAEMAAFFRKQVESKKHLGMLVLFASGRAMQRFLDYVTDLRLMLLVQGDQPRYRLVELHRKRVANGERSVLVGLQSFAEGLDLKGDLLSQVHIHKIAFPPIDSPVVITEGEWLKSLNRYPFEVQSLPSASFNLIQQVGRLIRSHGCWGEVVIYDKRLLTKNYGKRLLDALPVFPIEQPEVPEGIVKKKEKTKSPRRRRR
Sequence of UniProt P04425 (P04425 whole entry): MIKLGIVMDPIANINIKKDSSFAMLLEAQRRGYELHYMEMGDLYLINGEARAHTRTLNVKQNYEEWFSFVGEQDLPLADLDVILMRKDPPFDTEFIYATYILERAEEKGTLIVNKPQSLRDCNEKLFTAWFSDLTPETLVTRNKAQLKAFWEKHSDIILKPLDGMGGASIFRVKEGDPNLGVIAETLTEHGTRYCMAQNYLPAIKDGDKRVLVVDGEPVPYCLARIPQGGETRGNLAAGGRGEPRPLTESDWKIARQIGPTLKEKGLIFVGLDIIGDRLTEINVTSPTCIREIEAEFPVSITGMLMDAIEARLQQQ
Sequence of UniProt P64610 (P64610 whole entry): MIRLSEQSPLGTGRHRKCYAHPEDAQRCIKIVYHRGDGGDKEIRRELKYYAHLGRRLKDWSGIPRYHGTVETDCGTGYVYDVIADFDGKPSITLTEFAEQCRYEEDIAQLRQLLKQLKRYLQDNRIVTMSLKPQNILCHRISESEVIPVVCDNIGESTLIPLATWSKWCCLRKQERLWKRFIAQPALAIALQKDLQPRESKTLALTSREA

Nc1ncnc2c1ncn2[C@@H]1O[C@H](COP(=O)(O)OP(=O)(O)OP(=O)(O)O)[C@@H](O)[C@H]1O [adenosine 5'-triphosphate]
Conditions | pEC50 of peptide local stability change
[1] | 3.1
[2] | 3.44
[3] | 2.99
[4] | 3.2
[5] | 2.12
[6] | 4.1
[7] | 2.71
[8] | 2.74
[9] | 2.71
[10] | 4.06
[11] | 2.73
[12] | 4.42
[13] | 4.16
[14] | 4.01
[15] | 3.83
[16] | 3.75
[17] | 3.47
[18] | 3.1
[19] | 2.46
[20] | 2.24
[21] | 3.61
[22] | 3.86
[23] | 4.87
[24] | 2.76
[25] | 3.18
[26] | 3.2
[27] | 3.07
[28] | 2.62
[29] | 2.48
[30] | 3.36
[31] | 3.85
